Experimental data: the supplement of paper PMC10307832

How the values were obtained:
Test in all cases: relative viability (nuclei count vs DMSO), 5 days (fraction); higher = more cells survive
[1] = compound: O=C(Nc1cccc(C(F)(F)F)c1)Nc1cc(S(=O)(=O)NC2CC2)ccc1-c1ccsc1 [AGI-6780] + C[C@]1(O)C[C@@H](c2nc(-c3ccc4ccc(-c5ccccc5)nc4c3)c3c(N)nccn32)C1 [Linsitinib] (partner 1 µM)
Summary of the method: (§1)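 One day after seeding in 1536-well plates, lung cancer cell lines were dosed by pin tool. Dosing was either single-drug or a fixed anchor-drug dose plus five library-drug doses (not always all listed) in √10 steps. After 5 days, nuclei were stained in one fix-and-stain step and counted on 4× images, and relative viability is the nuclei count of treated wells over that of vehicle wells, given as the median of duplicate plates.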

[2] = compound: O=C(Nc1cccc(C(F)(F)F)c1)Nc1cc(S(=O)(=O)NC2CC2)ccc1-c1ccsc1 [AGI-6780] + Nc1ncn([C@H]2C[C@H](O)[C@@H](CO)O2)c(=O)n1 [Decitabine] (partner 2 µM)
Summary of the method: as §1

[3] = compound: O=C(Nc1cccc(C(F)(F)F)c1)Nc1cc(S(=O)(=O)NC2CC2)ccc1-c1ccsc1 [AGI-6780] + CS(=O)(=O)N1CCN(Cc2cc3nc(-c4cccc5[nH]ncc45)nc(N4CCOCC4)c3s2)CC1 [Pictilisib] (partner 1 µM)
Summary of the method: as §1

[4] = compound: O=C(Nc1cccc(C(F)(F)F)c1)Nc1cc(S(=O)(=O)NC2CC2)ccc1-c1ccsc1 [AGI-6780] + Cc1nc(NC(=O)N2CCC[C@H]2C(N)=O)sc1-c1ccnc(C(C)(C)C(F)(F)F)c1 [Alpelisib] (partner 2 µM)
Summary of the method: as §1

Cell Line	relative viability ([1]; first compound 0.08 µM)	relative viability ([1]; first compound 0.253 µM)	relative viability ([1]; first compound 0.8 µM)	relative viability ([1]; first compound 2.53 µM)	relative viability ([1]; first compound 8 µM)	relative viability ([2]; first compound 0.08 µM)	relative viability ([2]; first compound 0.253 µM)	relative viability ([2]; first compound 0.8 µM)	relative viability ([2]; first compound 2.53 µM)	relative viability ([2]; first compound 8 µM)	relative viability ([3]; first compound 0.08 µM)	relative viability ([3]; first compound 0.253 µM)	relative viability ([3]; first compound 0.8 µM)	relative viability ([3]; first compound 2.53 µM)	relative viability ([3]; first compound 8 µM)	relative viability ([4]; first compound 0.08 µM)	relative viability ([4]; first compound 0.253 µM)	relative viability ([4]; first compound 0.8 µM)	relative viability ([4]; first compound 2.53 µM)	relative viability ([4]; first compound 8 µM)
COR-L23	0.969	0.766	0.77	1.08	0.891	0.449	0.455	0.477	0.399	0.416	0.772	0.755	0.702	0.66	0.827	0.757	0.688	0.67	0.747	0.699
LK-2	0.617	0.646	0.536		0.522	0.282	0.402	0.322		0.477	0.413	0.461	0.601		0.505	1.27	1.1	1.29		0.986
PC-14	0.983	0.925	0.832	0.903	0.937	0.22	0.226	0.295	0.217	0.198	0.927	0.681	0.893	0.55	0.857	0.947	0.986	0.944	0.913	0.961
SW 1573	0.818	0.911	0.868	0.652	0.831	0.6	0.449	0.65	0.417	0.493	0.506	0.518	0.514	0.374	0.543	0.876	0.843	0.76	0.649	0.554
NCI-H2085	1.01	0.87	0.781	0.921	1.07	0.574	0.534	0.523	0.474	0.537	0.468	0.541	0.48	0.404	0.491	0.965	0.978	0.976	0.949	0.885
NCI-H441	0.498	0.528	0.461	0.424	0.459	0.221	0.28	0.25	0.204	0.241	0.562	0.483	0.565	0.288	0.381	0.885	0.783	0.713	0.382	0.646
NCI-H1648						0.551	0.418	0.506	0.459	0.627										
NCI-H2126	0.761	0.802	0.709	0.585	0.712	0.577	0.615	0.562	0.501	0.582	0.484	0.573	0.496	0.44	0.493	0.812	0.72	0.767	0.696	0.741
LXF-289	0.952	1.01	1.01	1.01	0.897	0.33	0.393	0.358	0.311	0.366	0.827	0.803	0.766	0.741	0.827	1.03	1.04	1.07	1.09	1.03
HCC-44	0.714	0.73	0.693	0.622	0.597	0.926	0.977	0.997	0.94	0.968	0.745	0.72	0.649	0.496	0.486	0.874	0.755	0.826	0.626	0.817
EMC-BAC-2	0.845	0.82	0.835	0.782	0.822		1.01	0.927	0.855	1.04	0.579	0.575	0.602	0.395	0.617	0.797	0.73	0.756	0.67	0.778
NCI-H522						0.612	0.583	0.722		0.588										
NCI-H1792	0.53	0.519	0.519	0.544	0.408	0.665	0.437	0.536		0.49	0.302	0.279	0.281	0.245	0.242	0.763	0.677	0.693	0.702	0.558
NCI-H661	0.624	0.53	0.599	0.458	0.534	0.589	0.567	0.612	0.502	0.558	0.378	0.482	0.45	0.317	0.381	0.483	0.713	0.791	0.51	0.59
LCLC-103H	1.18	1.15	0.963	1.06	1.06	0.768	0.824	0.714	0.726	0.753	0.582	0.681	0.516	0.457	0.663	0.916	1.01	0.906	0.983	0.78
NCI-H1793	0.849	0.881	1.11	0.526	0.93	0.519	0.539	0.415	0.342	0.549	0.272	0.364	0.351	0.344	0.303	0.744	0.831	0.943	0.562	0.675
HOP-62	0.945	1.3	1.08	1.04	0.826	0.199	0.264	0.235	0.25	0.218	0.815	0.928	0.88	0.651	0.786	0.923	0.985	0.986	1.14	1.27
HCC-827	1.01	0.96	0.872	0.989	0.942	0.331	0.314	0.39	0.29	0.336	0.896	0.916	1.03	0.856	0.823	0.937	0.971	0.986	0.952	0.955
NCI-H2087	1.06	0.891	0.85	0.984	0.883	0.329	0.272	0.326	0.243	0.235	0.787	0.914	0.879	0.644	0.773	1.17	1.1	1.15	0.983	1.14

Cell Line	relative viability ([1]; first compound 0.08 µM)	relative viability ([1]; first compound 0.253 µM)	relative viability ([1]; first compound 0.8 µM)	relative viability ([1]; first compound 2.53 µM)	relative viability ([1]; first compound 8 µM)	relative viability ([2]; first compound 0.08 µM)	relative viability ([2]; first compound 0.253 µM)	relative viability ([2]; first compound 0.8 µM)	relative viability ([2]; first compound 2.53 µM)	relative viability ([2]; first compound 8 µM)	relative viability ([3]; first compound 0.08 µM)	relative viability ([3]; first compound 0.253 µM)	relative viability ([3]; first compound 0.8 µM)	relative viability ([3]; first compound 2.53 µM)	relative viability ([3]; first compound 8 µM)	relative viability ([4]; first compound 0.08 µM)	relative viability ([4]; first compound 0.253 µM)	relative viability ([4]; first compound 0.8 µM)	relative viability ([4]; first compound 2.53 µM)	relative viability ([4]; first compound 8 µM)
RERF-LC-KJ	0.863	1	0.837	0.822	0.845	0.634	0.698	0.829	0.644	0.611	0.559	0.537	0.604	0.418	0.467	0.784	0.824	0.779	0.672	0.75
NCI-H2342						0.727	0.733	0.732	0.65	0.99										
A-427	1.09	1.07	1.1	1.03	1.12		0.538	0.573	0.508	0.527	0.702	0.753	0.653	0.524	0.854	1.06	1.02	1.09	0.902	1.06
HARA	0.921	0.949	0.841	0.971	0.985	0.481	0.446	0.513	0.402	0.61	0.379	0.406	0.54	0.587	0.371	0.925	0.834	0.585	0.801	0.974
HCC-78	0.592	0.491	0.587	0.561	0.537	0.604	0.695	0.708	0.661	0.688	0.159	0.241	0.299	0.152	0.249	0.366	0.331	0.462	0.32	0.361
NCI-H1755	0.987	1.01	0.999	0.974	0.923	0.718	0.758	0.691	0.604	0.689	0.445	0.467	0.408	0.368	0.441	0.991	0.936	0.948	0.83	0.898
NCI-H23	0.622	0.582	0.693	0.39	0.672	0.3	0.327	0.285	0.294	0.313	0.614	0.571	0.624	0.437	0.609	0.971	0.745	0.811	0.473	0.791
ABC-1	0.756	0.501	0.835	0.736	0.601		1.42	0.87	1.05	0.924	0.86	0.865	1.05	0.864	0.756	1.14	0.918	1.08	0.829	1.24
Calu-6	0.984	1.02	0.897	0.852	0.955						0.996	0.891	0.929	0.908	0.937	1.01	0.977	0.97	0.945	1.04
NCI-H838	1.12	0.964	1.07	0.851	0.908	0.445	0.495	0.479	0.506	0.47	0.473	0.479	0.469	0.447	0.48	1.05	0.927	1.01	0.825	0.959
NCI-H1563	1.27	1.22	1.24	1.11	1.08						0.621	0.629	0.628	0.614	0.519	0.923	0.934	0.846	0.992	0.874
EBC-1	0.861	1.13	0.885	0.836	0.94						0.388	0.337	0.343	0.379	0.347	0.965	0.923	0.798	0.783	0.841
ChaGo-K-1						0.507	0.534	0.512	0.455	0.425	0.593	0.809	0.938	0.552	0.704					
CAL-12T	0.771	0.726	0.72	1	0.892							0.575	0.531	0.717	0.644	1.33	1.15	1.29	1.23	1.13
NCI-H1650						0.435	0.485	0.381	0.305	0.387	0.566	0.555	0.678	0.568	0.586					
NCI-H2228	0.8	1.07	0.604	0.754	0.629						0.378	0.532	0.358	0.133	0.386	0.904	0.831	0.563	0.618	0.635
NCI-H1299	1.01	0.987	0.941	1.05	1.04						0.781	0.733	0.639	0.765	0.742	1.02	1.04	0.971	1.09	1.02
NCI-H2170						0.469	0.495	0.477		0.459	0.348	0.358	0.328		0.303	0.813	0.838	0.86		0.772
